In ChEMBL document CHEMBL3112556, “Novel GlyT1 inhibitor chemotypes by scaffold hopping. Part 2: development of a [3.3.0]-based series and other piperidine bioisosteres” (Bioorg Med Chem Lett, 2014):
Activity calls are given as the source filed them. The rule behind the calls is not given here.

Columns and labels:
[1] = target: T1, Sodium- and chloride-dependent glycine transporter 2 (Homo sapiens, UniProt Q9Y345); test: Inhibition of GlyT2 (unknown origin) assessed as [14C]-glycine transport
T1 sequence (Q9Y345 whole entry): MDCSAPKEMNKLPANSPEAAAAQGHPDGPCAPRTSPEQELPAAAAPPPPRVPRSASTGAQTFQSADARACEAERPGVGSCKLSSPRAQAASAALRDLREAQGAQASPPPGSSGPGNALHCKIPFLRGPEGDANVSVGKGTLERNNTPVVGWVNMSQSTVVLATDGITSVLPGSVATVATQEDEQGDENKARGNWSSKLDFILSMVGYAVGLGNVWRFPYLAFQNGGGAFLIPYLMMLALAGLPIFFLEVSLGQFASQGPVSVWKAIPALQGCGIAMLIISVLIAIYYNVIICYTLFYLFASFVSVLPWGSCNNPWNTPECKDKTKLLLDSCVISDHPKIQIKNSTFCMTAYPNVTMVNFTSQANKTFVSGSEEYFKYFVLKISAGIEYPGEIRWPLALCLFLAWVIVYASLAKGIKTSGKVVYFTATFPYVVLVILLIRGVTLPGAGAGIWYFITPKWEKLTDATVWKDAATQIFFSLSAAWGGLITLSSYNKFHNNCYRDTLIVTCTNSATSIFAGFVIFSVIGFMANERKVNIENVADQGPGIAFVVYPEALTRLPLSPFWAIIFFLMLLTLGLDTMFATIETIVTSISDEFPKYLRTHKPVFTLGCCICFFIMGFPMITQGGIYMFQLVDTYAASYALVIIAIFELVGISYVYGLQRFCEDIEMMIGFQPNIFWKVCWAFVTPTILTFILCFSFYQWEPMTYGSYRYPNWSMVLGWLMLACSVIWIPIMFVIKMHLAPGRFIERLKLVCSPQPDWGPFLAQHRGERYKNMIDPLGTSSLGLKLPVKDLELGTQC

[2] = Metabolic stability in rat liver microsomes assessed as compound remaining after 90 mins; assay type: ADME; conditions: read-out: Stability
[3] = Inhibition of CYP450 (unknown origin); assay type: ADME, Homo sapiens
[4] = Fraction unbound in rat; assay type: ADME; conditions: in vitro
[5] = target: T2, Sodium- and chloride-dependent glycine transporter 1 (Homo sapiens) (UniProt P48067); test: Competitive inhibition of GlyT1 (unknown origin) assessed as [14C]-glycine transport by Eadie-Hoffstee plot analysis
T2 sequence (whole entry): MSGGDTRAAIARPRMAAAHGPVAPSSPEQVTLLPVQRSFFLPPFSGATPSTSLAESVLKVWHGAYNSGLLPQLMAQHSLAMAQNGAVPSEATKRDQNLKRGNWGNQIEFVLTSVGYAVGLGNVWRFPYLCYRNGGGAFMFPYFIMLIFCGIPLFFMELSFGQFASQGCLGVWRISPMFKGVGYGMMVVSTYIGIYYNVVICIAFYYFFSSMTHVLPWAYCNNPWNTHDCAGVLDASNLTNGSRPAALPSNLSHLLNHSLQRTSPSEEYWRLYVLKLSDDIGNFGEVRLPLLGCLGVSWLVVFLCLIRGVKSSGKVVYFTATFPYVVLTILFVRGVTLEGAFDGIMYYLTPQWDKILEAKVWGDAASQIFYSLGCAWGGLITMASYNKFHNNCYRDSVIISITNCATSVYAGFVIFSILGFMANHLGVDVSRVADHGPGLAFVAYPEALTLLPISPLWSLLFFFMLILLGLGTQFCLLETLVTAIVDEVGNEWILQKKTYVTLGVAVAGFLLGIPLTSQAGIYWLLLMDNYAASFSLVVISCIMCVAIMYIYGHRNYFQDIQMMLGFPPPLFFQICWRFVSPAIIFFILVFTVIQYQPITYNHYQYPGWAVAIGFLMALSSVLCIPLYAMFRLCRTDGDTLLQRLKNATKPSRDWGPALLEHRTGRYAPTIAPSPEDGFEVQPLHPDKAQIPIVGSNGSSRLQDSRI

[6] = target: T3, Sodium- and chloride-dependent glycine transporter 1 (Homo sapiens, UniProt P48067); test: Inhibition of GlyT1 (unknown origin) assessed as [14C]-glycine transport
T3 sequence (P48067 whole entry): T2 sequence (whole entry)

Row | SMILES | IC50 [1] [µM] | competitive inhibition (active/inactive) [5] | IC50 [6] [µM] | further results
1 | Cn1cnc(S(=O)(=O)N2CC(C(NC(=O)c3ccc(Cl)cc3Cl)c3ccccn3)C2)c1 (racemic) |  | Active |  | remaining at 1.5 h [2]: 75%; IC50 [3]: > 10 µM; Fu [4]: 14%
2 | Cn1cnc(S(=O)(=O)N2CC3CCC(NC(=O)c4ccc(F)cc4)C3C2)c1 (racemic) | > 30 |  |  | 
3 | Cn1cnc(S(=O)(=O)N2CC3CCC(NC(=O)c4ccc(F)c(F)c4)C3C2)c1 (racemic) | > 30 |  | 1.57 | 
4 | Cn1cnc(S(=O)(=O)N2CC3CCC(NC(=O)c4ccc(Cl)cc4)C3C2)c1 (racemic) | > 30 |  |  | 
5 | Cn1cnc(S(=O)(=O)N2CC3CCC(NC(=O)c4ccc(Cl)c(Cl)c4)C3C2)c1 (racemic) | > 30 |  |  | 
6 | Cn1cnc(S(=O)(=O)N2CC3CCC(NC(=O)C4CCCCC4)C3C2)c1 (racemic) | > 30 |  |  | 
7 | CCCS(=O)(=O)N1CC(C(NC(=O)c2ccc(Cl)cc2Cl)c2ccccc2)C1 (racemic) |  | Active |  | 
8 | CCCS(=O)(=O)N1CCC(C(NC(=O)c2ccc(Cl)cc2Cl)c2ccccc2)CC1 (racemic) |  | Active |  | 
9 | Cn1cnc(S(=O)(=O)N2CC(C(NC(=O)c3ccc(Cl)cc3Cl)c3ccccc3)C2)c1 (racemic) |  | Active |  | 
10 | Cn1cnc(S(=O)(=O)N2CC(C(NC(=O)c3ccc(Cl)cc3Cl)c3cccs3)C2)c1 (racemic) |  | Active |  | 
11 | Cn1cnc(S(=O)(=O)N2CCC(C(NC(=O)c3ccc(Cl)cc3Cl)c3ccccc3)CC2)c1 (racemic) |  | Active |  | 
12 | Cn1cnc(S(=O)(=O)N2CCC(C(NC(=O)c3ccc(Cl)cc3Cl)c3ccccn3)CC2)c1 (racemic) |  | Active |  | 
13 | Cn1cnc(S(=O)(=O)N2CCC(C(NC(=O)c3ccc(Cl)cc3Cl)c3cccs3)CC2)c1 (racemic) |  | Active |  | 

Continued, in another order:

Row | IC50 [1] [µM] | competitive inhibition (active/inactive) [5] | IC50 [6] [µM] | SMILES | further results
14 | > 30 |  |  | Cn1cnc(S(=O)(=O)N2CC3CCC(NC(=O)c4c(F)cccc4F)C3C2)c1 (racemic) | 
15 | > 30 |  | > 10 | CCS(=O)(=O)N1CC2CCC(NC(=O)c3ccc(Cl)cc3Cl)C2C1 (racemic) | 
16 | > 30 |  | > 10 | CCCS(=O)(=O)N1CC2CCC(NC(=O)c3ccc(Cl)cc3Cl)C2C1 (racemic) | 
17 | > 30 |  | > 10 | CCCCS(=O)(=O)N1CC2CCC(NC(=O)c3ccc(Cl)cc3Cl)C2C1 (racemic) | 
18 | > 30 |  | > 10 | O=C(NC1CCC2CN(S(=O)(=O)c3ccccc3)CC21)c1ccc(Cl)cc1Cl (racemic) | 
19 | > 30 |  | > 10 | O=C(NC1CCC2CN(S(=O)(=O)c3ccccn3)CC21)c1ccc(Cl)cc1Cl (racemic) | 
20 | > 30 |  | > 10 | O=C(NC1CCC2CN(S(=O)(=O)c3cccs3)CC21)c1ccc(Cl)cc1Cl (racemic) | 
21 | > 30 |  |  | Cn1cnc(S(=O)(=O)N2CC3CCC(NC(=O)c4ccc(Cl)cc4Cl)C3C2)c1 (racemic) | remaining at 1.5 h [2]: 30%; IC50 [3]: > 10 µM; Fu [4]: 8.1%
22 | > 30 |  | 0.015 | Cn1cc(S(=O)(=O)N2CC3CCC(NC(=O)c4ccc(Cl)cc4Cl)C3C2)nn1 (racemic) | 
23 | > 30 | Active | 0.112 | Cn1cnc(S(=O)(=O)N2CC3CCC(NC(=O)c4ccccc4C(F)(F)F)C3C2)c1 (racemic) | 
24 | > 30 |  | 0.115 | Cn1cnc(S(=O)(=O)N2CC3CCC(NC(=O)c4ccccc4Cl)C3C2)c1 (racemic) | 
25 | > 30 |  |  | Cn1cnc(S(=O)(=O)N2CC3CCC(NC(=O)c4ccc(F)cc4F)C3C2)c1 (racemic) | 
26 | > 30 |  |  | Cn1cnc(S(=O)(=O)N2CC3CCC(NC(=O)c4ccccc4F)C3C2)c1 (racemic) | 
27 | > 30 |  | > 10 | Cn1cnc(S(=O)(=O)N2CC3CCC(NC(=O)c4cccc(F)c4)C3C2)c1 (racemic) | 
